These results are taken from US20240217990A1 (Gilead Sciences, Inc., priority 2021, published 2024).

One assay deals with T1, TLR7 (Homo sapiens, UniProt Q9NYK1).
T1 construct: Human peripheral blood mononuclear cells (PBMCs) consist of lymphocytes, monocytes and dendritic cells that express TLR7, TLR8 and TLR9; endogenous in cells; host or cells: cryopreserved human PBMCs from healthy donors
T1 sequence (Q9NYK1 27-1049): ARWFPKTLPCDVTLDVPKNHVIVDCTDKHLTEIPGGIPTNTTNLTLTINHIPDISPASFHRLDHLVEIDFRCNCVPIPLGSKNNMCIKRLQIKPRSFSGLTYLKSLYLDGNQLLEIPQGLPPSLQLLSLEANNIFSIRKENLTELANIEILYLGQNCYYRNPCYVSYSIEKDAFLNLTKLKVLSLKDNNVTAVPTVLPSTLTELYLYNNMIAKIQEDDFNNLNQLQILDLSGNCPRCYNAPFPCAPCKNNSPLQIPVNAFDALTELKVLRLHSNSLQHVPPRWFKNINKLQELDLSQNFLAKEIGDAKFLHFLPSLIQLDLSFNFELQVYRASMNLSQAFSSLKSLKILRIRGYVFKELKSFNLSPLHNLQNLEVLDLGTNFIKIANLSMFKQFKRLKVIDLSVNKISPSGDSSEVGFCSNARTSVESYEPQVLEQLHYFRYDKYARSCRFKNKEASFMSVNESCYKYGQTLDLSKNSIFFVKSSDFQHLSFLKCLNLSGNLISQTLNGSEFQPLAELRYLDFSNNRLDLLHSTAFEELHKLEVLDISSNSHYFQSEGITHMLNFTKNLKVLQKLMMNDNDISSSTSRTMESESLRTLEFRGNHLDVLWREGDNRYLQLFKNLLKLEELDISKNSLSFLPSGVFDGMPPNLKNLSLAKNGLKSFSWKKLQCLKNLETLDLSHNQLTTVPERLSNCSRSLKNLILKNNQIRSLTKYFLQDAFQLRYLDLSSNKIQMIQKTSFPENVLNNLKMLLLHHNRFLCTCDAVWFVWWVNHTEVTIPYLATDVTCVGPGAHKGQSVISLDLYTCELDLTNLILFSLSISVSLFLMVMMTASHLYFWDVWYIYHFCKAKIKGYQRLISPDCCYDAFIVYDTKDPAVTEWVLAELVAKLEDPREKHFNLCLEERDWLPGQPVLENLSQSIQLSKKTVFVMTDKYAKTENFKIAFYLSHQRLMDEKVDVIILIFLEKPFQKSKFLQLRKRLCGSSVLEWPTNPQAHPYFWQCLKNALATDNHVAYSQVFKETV
The experiment in a line: TLR7 human PBMC cell-based assay (antagonist, GS-986 stimulated cytokine release). Conditions: human PBMCs; TLR7 agonist GS-986 400 nM, 6 hours; cytokines (IL-6 and IFNα) in supernatant; read-out: TLR-7 EC50. The method in brief:
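Cryopreserved healthy-donor PBMCs (100,000/well, RPMI-1640 + 10% FBS) pre-incubated 1 h at 37 °C with antagonist (10-point dose response, quadruplicate), then stimulated 6 h with GS-986 at 400 nM final. Supernatant IL-6 and IFNα measured by electrochemiluminescence immunoassay; EC50 from sigmoidal fit.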

A further assay concerns the target T2, TLR8 (Homo sapiens, UniProt Q9NR97).
T2 construct: Human peripheral blood mononuclear cells (PBMCs) consist of lymphocytes, monocytes and dendritic cells that express TLR7, TLR8 and TLR9; endogenous in cells; host or cells: cryopreserved human PBMCs from healthy donors
T2 sequence (Q9NR97 27-1041): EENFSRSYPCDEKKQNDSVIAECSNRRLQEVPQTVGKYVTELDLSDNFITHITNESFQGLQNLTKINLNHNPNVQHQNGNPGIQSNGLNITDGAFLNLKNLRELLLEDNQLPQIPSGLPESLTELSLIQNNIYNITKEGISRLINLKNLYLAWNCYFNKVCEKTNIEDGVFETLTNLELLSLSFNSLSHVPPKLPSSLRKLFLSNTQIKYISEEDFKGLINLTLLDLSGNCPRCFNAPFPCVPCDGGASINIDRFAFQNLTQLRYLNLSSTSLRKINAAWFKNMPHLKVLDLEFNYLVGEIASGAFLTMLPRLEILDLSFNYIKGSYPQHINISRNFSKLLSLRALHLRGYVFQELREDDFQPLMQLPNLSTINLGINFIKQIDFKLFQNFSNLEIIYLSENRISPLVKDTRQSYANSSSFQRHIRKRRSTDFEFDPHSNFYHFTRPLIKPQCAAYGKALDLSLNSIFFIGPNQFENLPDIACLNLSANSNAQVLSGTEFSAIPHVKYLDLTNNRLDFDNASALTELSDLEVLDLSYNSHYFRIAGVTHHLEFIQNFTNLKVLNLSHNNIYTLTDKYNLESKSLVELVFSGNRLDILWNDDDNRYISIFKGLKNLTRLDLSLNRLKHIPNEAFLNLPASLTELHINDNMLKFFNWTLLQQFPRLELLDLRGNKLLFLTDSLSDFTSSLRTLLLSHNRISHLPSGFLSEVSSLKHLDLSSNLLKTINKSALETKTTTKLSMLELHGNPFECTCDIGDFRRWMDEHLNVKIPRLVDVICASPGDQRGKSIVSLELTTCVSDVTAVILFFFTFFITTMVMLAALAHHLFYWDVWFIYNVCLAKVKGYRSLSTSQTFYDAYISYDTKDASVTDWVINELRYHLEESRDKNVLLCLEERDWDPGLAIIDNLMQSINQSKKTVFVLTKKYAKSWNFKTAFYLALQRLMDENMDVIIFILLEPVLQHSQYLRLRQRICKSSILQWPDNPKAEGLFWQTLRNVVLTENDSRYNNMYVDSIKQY
The assay is described as follows: TLR8 human PBMC cell-based assay (antagonist, Compound A stimulated cytokine release). Conditions: human PBMCs; TLR8 agonist Compound A 800 nM, 6 hours; cytokines (TNFa and IL 12p40) in supernatant; read-out: TLR-8 EC50. An outline of the steps:
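Cryopreserved donor PBMCs (100,000/well, RPMI + 10% FBS) were preincubated 1 h with antagonist (10-point dose response, quadruplicate), then stimulated with Compound A (800 nM final) for 6 h at 37 °C. TNFa and IL-12p40 in supernatants were measured by electrochemiluminescence; sigmoidal fits gave EC50.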

`Cc1c(-c2[nH]c3cc(-c4cnc5c(c4)CNCC5)sc3c2C(C)C)cn2ncnc2c1C` [Example 222]: the results for the EC50 on TLR7 and at TLR8 were 3.1 nM and 0.7 nM, respectively.

Consider `Cc1cc(-c2[nH]c3cc(-c4ccc5c(c4)CCNC5)sc3c2C(C)C)cn2ncnc12` [Example 223], for which the EC50 (commonly the concentration giving half of the maximal effect) amounted to 0.4 nM at TLR7 and 0.5 nM at TLR8.

Turning to `COc1cc(-c2[nH]c3cc(-c4cnc5c(c4)CNCC5)sc3c2C(C)C)cn2ncnc12` [Example 224], the results for the half-maximal effective concentration (EC50) at TLR7 and at TLR8 were 0.4 nM and 0.3 nM, respectively.

Take `Cc1cc(-c2[nH]c3cc(-c4cccc5c4CCNC5)sc3c2C(C)C)cn2ncnc12` [Example 225]: the EC50 at TLR7 is 37.8 nM; on TLR8 it was 5.3 nM.

For `Cc1cc(-c2[nH]c3cc(-c4cnn(C5CCNC5)c4)sc3c2C(C)C)cn2ncnc12` (stereo not shown) [Example 226], the EC50 on TLR7 was determined as 0.6 nM; at TLR8, 1.6 nM.

With `Cc1cc(-c2[nH]c3cc(-c4ccc5c(c4)CC(N)C5)sc3c2C(C)C)cn2ncnc12` (stereo not shown) [Example 227], the EC50 was 0.6 nM at TLR7 and 0.7 nM at TLR8.

As to `Cc1c(-c2[nH]c3cc(-c4ccc(N5CCNCC5)nc4)sc3c2C(C)C)cn2ncnc2c1C` [Example 228], the results for the EC50 at TLR7 and on TLR8 were 0.4 nM and 0.5 nM, respectively.

With `Cc1c(-c2[nH]c3cc(-c4cnn(C5CCNCC5)c4)sc3c2C(C)C)cn2ncnc2c1C` [Example 229], the EC50 was found to be 1.1 nM on TLR7 and 1.3 nM on TLR8.

`Cc1c(-c2[nH]c3cc(-c4cn(C5CCNCC5)nn4)sc3c2C(C)C)cn2ncnc2c1C` [Example 230]: the EC50 on TLR7 turned out to be 1.6 nM; at TLR8, 1.9 nM.

For the molecule `Cc1c(-c2[nH]c3cc(-c4ccc(N5CCNCC5)cc4)sc3c2C(C)C)cn2ncnc2c1C` [Example 231], the figures for the EC50 at TLR7 and on TLR8 were 1.7 nM and 3.1 nM, respectively.

For `COc1cc(-c2[nH]c3cc(-c4cn(C5CCNCC5)nn4)sc3c2C(C)C)cn2ncnc12` [Example 232], the figures for the EC50 at TLR7 and at TLR8 were 0.7 nM and 1.3 nM, respectively.

On to `COc1cc(-c2[nH]c3cc(-c4cnn(C5CCNCC5)c4)sc3c2C(C)C)cn2ncnc12` [Example 233], for which the EC50 on TLR7 worked out at 0.4 nM; at TLR8 it was 1.4 nM.

As for `Cc1cc(-c2[nH]c3cc(-c4cccc(N5CCNCC5)c4)sc3c2C(C)C)cn2ncnc12` [Example 234], the EC50 at TLR7 was 8.1 nM; on TLR8, 8.4 nM.

On to `Cc1cc(-c2[nH]c3cc(-c4nc5ccccc5[nH]4)sc3c2C(C)C)cn2ncnc12` [Example 235, 2-(1H-benzo[d]imidazol-2-yl)-6-isopropyl-5-(8-methyl-[1,2,4]triazolo[1,5-a]pyridin-6-yl)-4H-thieno[3,2-b]pyrrole], for which the EC50 was 110 nM on TLR7 and 114 nM at TLR8.

For the molecule `Cc1cc(-c2[nH]c3cc(-c4nc5ccncc5[nH]4)sc3c2C(C)C)cn2ncnc12` [Example 236], the EC50 is 18.6 nM at TLR7 and 14.2 nM at TLR8.

With `Cc1cc(-c2[nH]c3cc(-c4nc5ccc(N6CCNCC6)cc5[nH]4)sc3c2C(C)C)cn2ncnc12` [Example 237], the EC50 was 6.8 nM on TLR7 and 49.4 nM on TLR8.

For `Cc1cc(-c2[nH]c3cc(-c4nc5ccc(N6CCNCC6)cc5n4C)sc3c2C(C)C)cn2ncnc12` [Example 238], the half-maximal effective concentration (EC50) on TLR7 is 2.8 nM; on TLR8, 14.2 nM.

`Cc1c(-c2[nH]c3cc(-c4nc5ccc(N6CCNCC6)cc5[nH]4)sc3c2C(C)C)cn2ncnc2c1C` [Example 239]: the results for the EC50 on TLR7 and at TLR8 were 6.6 nM and 25.4 nM, respectively.

With `Cc1c(C(=O)N2CCNCC2)sc2c(C(C)C)c(-c3cc(C)c4ncnn4c3)[nH]c12` [Example 240, (6-isopropyl-3-methyl-5-(8-methyl-[1,2,4]triazolo[1,5-a]pyridin-6-yl)-4H-thieno[3,2-b]pyrrol-2-yl)(piperazin-1-yl)methanone], the EC50 at TLR7 worked out at 21 nM; at TLR8, 301 nM.

Turning to `Cc1c(C(=O)N(C)C2CCNCC2)sc2c(C(C)C)c(-c3cc(C)c4ncnn4c3)[nH]c12` [Example 241], the values for the EC50 at TLR7 and on TLR8 were 1.4 nM and 314 nM, respectively.

For `Cc1c(C(=O)N2CCC[C@H](N)[C@@H]2C)sc2c(C(C)C)c(-c3cc(C)c4ncnn4c3)[nH]c12` [Example 242], the EC50 came out at 15.4 nM at TLR7 and 219 nM at TLR8.

Regarding `Cc1c(C(=O)N2CCC[C@@H]3NCC[C@@H]32)sc2c(C(C)C)c(-c3cc(C)c4ncnn4c3)[nH]c12` [Example 243], the EC50 on TLR7 was determined as 52.4 nM; on TLR8 it was 82.9 nM.

As to `CCc1c(-c2cc(C)c3ncnn3c2)[nH]c2cc(-c3nc4ccc(N5CCNCC5)nc4[nH]3)sc12` [Example 244, 6-ethyl-5-(8-methyl-[1,2,4]triazolo[1,5-a]pyridin-6-yl)-2-(5-(piperazin-1-yl)-311-imidazo[4,5-b]pyridin-2-yl)-4H-thieno[3,2-b]pyrrole], the EC50 on TLR7 was found to be 333 nM; at TLR8, 33.1 nM.

For the molecule `CCc1c(-c2cc(C)c3ncnn3c2)[nH]c2cc(-c3nc4ccc(N5CCNCC5)cc4[nH]3)sc12` [Example 245], the EC50 at TLR7 amounted to 337 nM; on TLR8 it was 66.7 nM.

In the case of `Cc1cc(-c2[nH]c3cc(C(=O)N(C)C4CCC(N5CC(F)(F)C5)CC4)sc3c2C(C)C)cn2ncnc12` (stereo not shown) [Example 246, N-(4-(3,3-difluoroazetidin-1-yl)cyclohexyl)-6-isopropyl-N-methyl-5-(8-methyl-[1,2,4]triazolo[1,5-a]pyridin-6-yl)-4H-thieno[3,2-b]pyrrole-2-carboxamide], the 50% effective concentration (EC50) on TLR7 was 53.4 nM; on TLR8, 191 nM.

As to `Cc1cc(-c2[nH]c3cc(C(=O)N(C)C4CCC(N5CC6CCC(C5)O6)CC4)sc3c2C(C)C)cn2ncnc12` (stereo not shown) [Example 248], the EC50 on TLR7 was 7.6 nM; at TLR8 it was 19.5 nM.

Take `Cc1cc(-c2[nH]c3cc(C(=O)N(C)C4CCC(N5CCN(CC(F)F)CC5)CC4)sc3c2C(C)C)cn2ncnc12` (stereo not shown) [Example 249]: the EC50 stood at 3 nM at TLR7 and 12 nM on TLR8.

For `Cc1cc(-c2[nH]c3cc(C(=O)N(C)C4CCC(N5CC(F)C5)CC4)sc3c2C(C)C)cn2ncnc12` (stereo not shown) [Example 250], the results for the EC50 on TLR7 and on TLR8 were 6.6 nM and 11 nM, respectively.

As for `Cc1cc(-c2[nH]c3cc(C(=O)N(C)C4CCC(N5CC(OC(F)(F)F)C5)CC4)sc3c2C(C)C)cn2ncnc12` (stereo not shown) [Example 251], the EC50 is 59.6 nM on TLR7 and 105 nM at TLR8.
